Test results as given in patent US8497278B2, “Imidazo[1,2-a]pyridine compounds” (priority 2008, dated 2013).

How the values were obtained:
rhesus monkeys = test: Rhesus monkey conflict test; type: in vivo; conditions: cumulative dosing
Source text: Conflict protocol: The conflict procedure is a well established operant conditioning approach to evaluate anxiolytic-like effects of test compounds. In this procedure, positively-reinforced behavior is suppressed by response-contingent administration of a noxious stimulus (i.e., mild electric shock). Compounds with anxiolytic effects in humans (e.g., benzodiazepines) characteristically increase rates of responding that are suppressed by shock and are referred to as anti-conflict or anxiolytic-like effects. […] In addition to anxiolytic-like effects, conflict procedures also provide an assessment of the ability of the animal to perform operant lever pressing. This is typically assessed by including lever pressing in the absence of the noxious stimulus. Most anxiolytic compounds will decrease rates of responding in the absence of shock at doses higher than those that induce anxiolytic-like effects. The effects contributing to anxiolytic-induced decreases in non-suppressed responding are not well understood, but likely consist of a combination of motor co-ordination deficits and sedative effects.
Adult rhesus monkeys were used in these studies (n=1-4). Weights of the monkeys ranged from 6.2 to 10.5 kg. The animals had been previously trained using the conflict procedure. Animals were maintained at 85-95% of their free-feeding weights by manipulation of food intake. Monkeys were individually housed with water available ad libitum, and maintained on a 12 hour lights-on/12 hour lights-off cycle (lights on at 0600 a.m.). Monkeys received Harlan Teklad diet (15% Primate Diet) as well as supplemental feeding (fruits, vegetables, and commercially available primate treats) daily. They were also given toys and video enrichment when not in an experimental session. Each animal was prepared prior to the study with a chronic indwelling venous catheter for drug delivery. A polyvinyl chloride catheter was implanted in a jugular, femoral or brachial vein under isoflurane anesthesia and aseptic conditions. The proximal end of the catheter terminated above the right atrium, and the distal end was passed subcutaneously to exit in the midscapular region. Experimental sessions began 5-7 days following surgery. Catheters had been implanted approximately 3 months to 1 year prior to the initiation of the study. During experimental sessions, monkeys were seated in primate chairs that were placed in ventilated sound-attenuating chambers. A single response lever was mounted on the wall of the chamber in front of the monkey. Each press of a lever produced an audible click and was recorded as a response via electromechanical equipment, a computer interface, and PC with specialized software. Food pellets could be delivered into a tray located next to the lever. Mild electric shock could be delivered to the bottom of the feet via brass electrodes that were fitted to shoes. Red and green lights mounted above the levers could be illuminated to serve as visual stimuli.
Monkeys were trained under a multiple schedule of food reinforcement adapted from Spealman (1979). A daily session consisted of 4 cycles, each preceded by a 10-min time out period in which all lights in the chamber were off and responding had no programmed consequences. Each cycle consisted of two components, component 1 and 2. Component 1 was signaled by red stimulus lights and consisted of an 18-response schedule (FR18) of food pellet delivery (i.e., the animal receives a food pellet following 18 responses). Component 2, signaled by green stimulus lights, followed immediately and consisted of the FR18 schedule of food delivery combined with a FR20 schedule of foot shock delivery (1.5-3.0 mA, adjusted for each monkey based on individual performance, 0.25 sec duration). Delivery of a food pellet (FR18 schedule) was followed by a 10 sec time out in which responses had no programmed consequences. […]

[1] = test system: central benzodiazepine receptors; test: Central benzodiazepine receptor binding (test of Speth et al.); conditions: 1000 nM of the compound
Summary of the method: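 Values are percent inhibition of central benzodiazepine receptor binding at 1000 nM compound (initial single-point screen at 1.0E-09, 1.0E-07 and 1.0E-05 M). Speth et al. binding test; nonspecific binding defined with excess unlabelled ligand and subtracted from total.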

[2] = target: T1, α1 subtype containing GABA-A receptors (Homo sapiens, UniProt P14867+P18507); test: Two-electrode voltage clamp electrophysiology in Xenopus oocytes, potentiation of GABA EC20 response, α1; type: cell-based; conditions: 100 nM compound; for activation at 0.1 µM: read-out: Percentage of potentiation alpha1
T1 construct: expressed in transfected cells; host or cells: Xenopus laevis oocytes, cRNA injected
T1 sequence (P14867 28-456): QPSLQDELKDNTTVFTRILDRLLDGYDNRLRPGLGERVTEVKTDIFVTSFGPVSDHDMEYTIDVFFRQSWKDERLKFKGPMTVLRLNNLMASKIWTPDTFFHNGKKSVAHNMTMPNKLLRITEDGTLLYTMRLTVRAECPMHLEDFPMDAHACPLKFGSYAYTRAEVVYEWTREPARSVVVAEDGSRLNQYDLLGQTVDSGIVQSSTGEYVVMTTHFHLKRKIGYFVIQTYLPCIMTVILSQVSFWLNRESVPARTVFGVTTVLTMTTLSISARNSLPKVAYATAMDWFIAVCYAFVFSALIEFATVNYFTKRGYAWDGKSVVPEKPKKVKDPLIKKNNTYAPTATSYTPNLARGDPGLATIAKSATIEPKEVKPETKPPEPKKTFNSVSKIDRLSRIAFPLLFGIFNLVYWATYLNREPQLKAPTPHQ
T1 sequence (P28472 26-473 partner): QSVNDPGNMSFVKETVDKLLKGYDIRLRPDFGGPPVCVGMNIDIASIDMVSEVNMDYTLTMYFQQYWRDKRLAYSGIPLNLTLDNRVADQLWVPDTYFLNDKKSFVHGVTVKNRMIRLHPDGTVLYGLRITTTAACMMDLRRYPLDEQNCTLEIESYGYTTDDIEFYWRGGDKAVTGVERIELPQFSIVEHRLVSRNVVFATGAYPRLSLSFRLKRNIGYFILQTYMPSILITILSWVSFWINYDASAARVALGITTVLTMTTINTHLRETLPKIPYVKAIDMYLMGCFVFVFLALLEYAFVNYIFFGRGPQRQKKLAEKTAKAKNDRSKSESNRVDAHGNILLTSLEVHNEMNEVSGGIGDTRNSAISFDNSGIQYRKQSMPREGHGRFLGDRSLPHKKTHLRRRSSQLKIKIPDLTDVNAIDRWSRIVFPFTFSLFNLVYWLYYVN
T1 sequence (P18507 40-475): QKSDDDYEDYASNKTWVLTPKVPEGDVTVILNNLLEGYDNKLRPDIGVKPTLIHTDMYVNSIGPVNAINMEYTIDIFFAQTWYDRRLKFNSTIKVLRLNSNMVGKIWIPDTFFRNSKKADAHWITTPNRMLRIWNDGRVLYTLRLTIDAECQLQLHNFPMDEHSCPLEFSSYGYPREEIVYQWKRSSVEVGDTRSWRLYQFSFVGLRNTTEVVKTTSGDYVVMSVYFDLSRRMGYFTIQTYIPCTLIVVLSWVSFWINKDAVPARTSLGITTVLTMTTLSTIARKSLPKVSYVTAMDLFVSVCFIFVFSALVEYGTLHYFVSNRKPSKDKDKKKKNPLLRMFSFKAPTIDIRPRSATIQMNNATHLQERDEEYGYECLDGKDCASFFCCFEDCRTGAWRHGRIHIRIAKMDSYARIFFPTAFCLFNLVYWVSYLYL
Summary of the method: (§1)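 TEVC, oocytes expressing human αx/β3/γ2L GABA-A; Vh −80 mV; ND96 pH 7.5 perfusion. 3 × 20-s GABA EC20 (60 μM) baseline → 1 μM CDP standard → compound 100 nM. Low-current or poorly γ2L-incorporating oocytes excluded.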

[3] = target: T2, α2 subtype containing GABA-A receptors (Homo sapiens, UniProt P18507+P47869); test: Two-electrode voltage clamp electrophysiology in Xenopus oocytes, potentiation of GABA EC20 response, α2; type: cell-based; conditions: 100 nM compound; for activation at 0.1 µM: read-out: Percentage of potentiation alpha2
T2 construct: expressed in transfected cells; host or cells: Xenopus laevis oocytes, cRNA injected
T2 sequence (P47869 29-451): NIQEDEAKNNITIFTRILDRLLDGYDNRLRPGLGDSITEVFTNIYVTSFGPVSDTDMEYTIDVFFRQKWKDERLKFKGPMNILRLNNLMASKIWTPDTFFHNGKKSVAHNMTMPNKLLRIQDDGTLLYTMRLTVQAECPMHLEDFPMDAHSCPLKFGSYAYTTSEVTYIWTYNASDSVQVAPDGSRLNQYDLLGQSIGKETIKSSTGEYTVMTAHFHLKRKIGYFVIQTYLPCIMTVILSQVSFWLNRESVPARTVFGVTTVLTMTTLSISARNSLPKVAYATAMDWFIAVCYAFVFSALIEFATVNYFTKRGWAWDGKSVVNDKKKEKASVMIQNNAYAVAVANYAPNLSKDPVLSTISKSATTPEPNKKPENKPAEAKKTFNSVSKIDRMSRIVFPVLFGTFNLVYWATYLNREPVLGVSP
T2 sequence (P28472 26-473 partner): as the sequence (P28472 26-473 partner) above
T2 sequence (P18507 40-475): as the sequence (P18507 40-475) above
Summary of the method: as §1

With `Cc1nnc2n1-c1ccc(Cl)cc1C(c1ccccc1)=NC2` [Alprazolam, reference compound] as the compound, how does the “Non-Suppressed Response Rates Mean ± S.E.M.” value (rhesus monkeys; 0.003 mg/kg IV) read?
The value was 2.18 ± 0.26 Responses/Second.

And the “Suppressed Response Rates Mean ± S.E.M.” value (rhesus monkeys; 0.003 mg/kg IV)?
Its value is 0.04 ± 0.02 Responses/Second.

What about the “Non-Suppressed Response Rates Mean ± S.E.M.” value (rhesus monkeys; 0.01 mg/kg IV) of the same compound?
Its value is 2.62 ± 0.32 Responses/Second.

And the “Suppressed Response Rates Mean ± S.E.M.” value (rhesus monkeys; 0.01 mg/kg IV)?
Its value is 0.76 ± 0.26 Responses/Second.

And the “Non-Suppressed Response Rates Mean ± S.E.M.” value (rhesus monkeys; 0.03 mg/kg IV)?
Its value is 2.38 ± 0.36 Responses/Second.

What about the “Suppressed Response Rates Mean ± S.E.M.” value (rhesus monkeys; 0.03 mg/kg IV) of the same compound?
The value was 2.28 ± 0.55 Responses/Second.

And the “Non-Suppressed Response Rates Mean ± S.E.M.” value (rhesus monkeys; 0.1 mg/kg IV)?
Its value is 1.16 ± 0.26 Responses/Second.

And the “Suppressed Response Rates Mean ± S.E.M.” value (rhesus monkeys; 0.1 mg/kg IV)?
Its value is 1.44 ± 0.57 Responses/Second.

`Cc1ccc(-c2nc3ccc(C)cn3c2Cn2ccnc2C)cc1` [Compound 2, 6-Methyl-3-((2-methyl-1H-imidazol-1-yl)methyl)-2-p-tolylH-imidazo[1,2-a]pyridine] was tested. Which “% Inhibition at 1000 nM for CBZD” value [1] did it give?
Its value is “++ (percentage of inhibition of central BZD site binding is greater than 80% in the presence of 1000 nM of the compound)”.

What about the “Percentage of potentiation alpha1” value [2] of the same compound?
Its value is “+ (percentage of potentiation is greater than or equal to 10% but less than 50% in the presence of 100 nM of the compound)”.

And the “Percentage of potentiation alpha2” value [3]?
Its value is “+ (percentage of potentiation is greater than or equal to 10% but less than 50% in the presence of 100 nM of the compound)”.

`Fc1ccc2nc(-c3ccc(Cl)cc3)c(Cn3nccn3)n2c1` [Compound 56, 3-((2H-1,2,3-triazol-2-yl)methyl)-2-(4-chlorophenyl)-6-fluoroH-imidazo[1,2-a]pyridine] was tested. Which “% Inhibition at 1000 nM for CBZD” value [1] did it give?
Its value is “++ (percentage of inhibition of central BZD site binding is greater than 80% in the presence of 1000 nM of the compound)”.

And the “Percentage of potentiation alpha1” value [2]?
Its value is “+ (percentage of potentiation is greater than or equal to 10% but less than 50% in the presence of 100 nM of the compound)”.

And the “Percentage of potentiation alpha2” value [3]?
Its value is “++ (percentage of potentiation is greater than or equal to 50% in the presence of 100 nM of the compound)”.

What does the source list for `Cc1ccc(-c2nc3ccc(C)cn3c2CNc2nccs2)cc1` [Compound 150, N-((6-methyl-2-p-tolylH-imidazo[1,2-a]pyridin-3-yl)methyl)thiazole-2-amine]?
% Inhibition at 1000 nM for CBZD [1]: ++ (percentage of inhibition of central BZD site binding is greater than 80% in the presence of 1000 nM of the compound); Percentage of potentiation alpha1 [2]: 0 (percentage of potentiation is between about 10% to about −10%); Percentage of potentiation alpha2 [3]: + (percentage of potentiation is greater than or equal to 10% but less than 50% in the presence of 100 nM of the compound)

What does the source list for `CCOC(=O)c1cc(C)n(Cc2c(-c3ccc(Cl)cc3)nc3ccccn23)n1` [Compound 29, ethyl 1-((2-(4-chlorophenyl)imidazo[1,2-a]pyridin-3-yl)methyl)-5-methyl-1H-pyrazole-3-carboxylate]?
% Inhibition at 1000 nM for CBZD [1]: ++ (percentage of inhibition of central BZD site binding is greater than 80% in the presence of 1000 nM of the compound); activation at 0.1 µM [2]: ≥ 50%; activation at 0.1 µM [3]: ≥ 50%

How did the “% Inhibition at 1000 nM for CBZD” value [1] turn out when `Fc1ccc(-c2nc3ccc(Cl)cn3c2CNc2nccc(CN3CCCC3)n2)cc1` [Compound 198, N-((6-chloro-2-(4-fluorophenyl)imidazo[1,2-a]pyridin-3-yl)methyl)-4-(pyrrolidin-1-ylmethyl)pyrimidin-2-amine] was run?
The value was “++ (percentage of inhibition of central BZD site binding is greater than 80% in the presence of 1000 nM of the compound)”.

And the activation at 0.1 µM [2]?
Its activation at 0.1 µM is no less than 50%.

And the activation at 0.1 µM [3]?
Its activation at 0.1 µM is no less than 50%.

How did the “% Inhibition at 1000 nM for CBZD” value [1] turn out when `Cc1cccc(=O)n1Cc1c(-c2ccc(Cl)cc2)nc2ccc(F)cn12` [Compound 120, 1-((2-(4-chlorophenyl)-6-fluoroimidazo[1,2-a]pyridin-3-yl)methyl)-6-methylpyridin-2(1H)-one] was run?
The value was “++ (percentage of inhibition of central BZD site binding is greater than 80% in the presence of 1000 nM of the compound)”.

And the activation at 0.1 µM [2]?
The activation at 0.1 µM was no less than 50%.

And the activation at 0.1 µM [3]?
Its activation at 0.1 µM is no less than 50%.

Which results are given for `Cc1nnc(Cc2c(-c3ccc(Cl)cc3)nc3ccccn23)[nH]1` [Compound 233, 2-(4-chlorophenyl)-3-((5-methyl-4H-1,2,4-triazol-3-yl)methyl)imidazo[1,2-a]pyridine]?
% Inhibition at 1000 nM for CBZD [1]: ++ (percentage of inhibition of central BZD site binding is greater than 80% in the presence of 1000 nM of the compound); activation at 0.1 µM [2]: 10 to 50%; activation at 0.1 µM [3]: ≥ 50%

Which results are given for `OC[C@H]1CCCN1c1ccnc(NCc2c(-c3ccccc3)nc3ccc(Cl)cn23)n1` [Compound 188, (R)-(1-(2-((6-chloro-2-phenylimidazo[1,2-a]pyridin-3-yl)methylamino)pyrimidin-4-yl)pyrrolidin-2-yl)methanol]?
% Inhibition at 1000 nM for CBZD [1]: ++ (percentage of inhibition of central BZD site binding is greater than 80% in the presence of 1000 nM of the compound); activation at 0.1 µM [2]: ≥ 50%; activation at 0.1 µM [3]: ≥ 50%

How did the “% Inhibition at 1000 nM for CBZD” value [1] turn out when `Cc1nnc(Cc2c(-c3ccccc3)nc3ccc(Cl)cn23)[nH]1` [Compound 234, 6-chloro-3-((5-methyl-4H-1,2,4-triazol-3-yl)methyl)-2-phenylimidazo[1,2-a]pyridine] was run?
The value was “++ (percentage of inhibition of central BZD site binding is greater than 80% in the presence of 1000 nM of the compound)”.

What about the activation at 0.1 µM [2] of the same compound?
Its activation at 0.1 µM is 10 to 50%.

And the activation at 0.1 µM [3]?
The activation at 0.1 µM was no less than 50%.

With `CC1(O)CCN(c2ccnc(NCc3c(-c4ccccc4)nc4ccc(Cl)cn34)n2)CC1` [Compound 187, 1-(2-((6-chloro-2-phenylimidazo[1,2-a]pyridin-3-yl)methylamino)pyrimidin-4-yl)-4-methylpiperidin-4-ol] as the compound, how does the “% Inhibition at 1000 nM for CBZD” value [1] read?
Its value is “++ (percentage of inhibition of central BZD site binding is greater than 80% in the presence of 1000 nM of the compound)”.

And the activation at 0.1 µM [2]?
The activation at 0.1 µM was no more than -10%.

And the activation at 0.1 µM [3]?
Its activation at 0.1 µM is -10 to 10%.

`CNC(=O)c1nccn1Cc1c(-c2ccc(Cl)cc2)nc2cccnn12` [Compound 88, 1-((2-(4-chlorophenyl)imidazo[1,2-b]pyridazin-3-yl)methyl)-N-methyl-1H-imidazole-2-carboxamide] was tested. Which “% Inhibition at 1000 nM for CBZD” value [1] did it give?
Its value is “++ (percentage of inhibition of central BZD site binding is greater than 80% in the presence of 1000 nM of the compound)”.

And the activation at 0.1 µM [2]?
Its activation at 0.1 µM is -10 to 10%.

What about the activation at 0.1 µM [3] of the same compound?
Its activation at 0.1 µM is 10 to 50%.

Which “% Inhibition at 1000 nM for CBZD” value [1] does the source give for `CCOc1ccn(Cc2c(-c3ccc(Cl)cc3)nc3ccccn23)c(=O)n1` [Compound 137, 1-((2-(4-chlorophenyl)imidazo[1,2-a]pyridin-3-yl)methyl)-4-ethoxypyrimidin-2(1H)-one] here?
The value was “++ (percentage of inhibition of central BZD site binding is greater than 80% in the presence of 1000 nM of the compound)”.

And the activation at 0.1 µM [2]?
Its activation at 0.1 µM is 10 to 50%.

And the activation at 0.1 µM [3]?
The activation at 0.1 µM was 10 to 50%.
